Assays:
Assay type in all cases: cell-based
M1 muscarinic receptor = target: T1, M1 muscarinic receptor (Homo sapiens, UniProt P11229); assay: Functional mobilization of intracellular calcium (FLIPR), M1-CHO cells; details: for Emax: 100% efficacy = maximum response obtained with the Carbachol control; for M1 Activity: M1-CHO cells, calcium mobilization (FLIPR)
T1 construct: expressed in transfected cells; host or cells: CHO (M1-CHO)
T1 sequence (P11229 1-460): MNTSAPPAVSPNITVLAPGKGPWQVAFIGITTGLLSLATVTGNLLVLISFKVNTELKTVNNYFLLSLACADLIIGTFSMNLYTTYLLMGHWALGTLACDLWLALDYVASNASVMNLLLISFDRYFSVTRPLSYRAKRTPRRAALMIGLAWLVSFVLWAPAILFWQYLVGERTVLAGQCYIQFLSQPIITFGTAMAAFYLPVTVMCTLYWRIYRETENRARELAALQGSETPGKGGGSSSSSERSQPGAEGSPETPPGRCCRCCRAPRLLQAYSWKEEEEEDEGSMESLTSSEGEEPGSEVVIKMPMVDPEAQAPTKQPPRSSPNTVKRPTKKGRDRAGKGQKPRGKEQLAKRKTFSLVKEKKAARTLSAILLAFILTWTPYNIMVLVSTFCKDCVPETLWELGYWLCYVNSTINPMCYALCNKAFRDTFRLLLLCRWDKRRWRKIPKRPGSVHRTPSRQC
Outline: (§1)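 CHO cells expressing human M1–M4 receptors loaded with Fluo-3 AM or Calcium 3 dye (1 mM probenecid, pH 7.4); 0.5% DMSO final. Agonist mode: compound added directly; antagonist mode: 15 min pre-incubation or co-application, then carbachol at EC80. Fluorescence read 60 s on FLIPR; efficacy relative to carbachol maximum.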

M2 muscarinic receptor = target: T2, M2 muscarinic receptor (Homo sapiens, UniProt P08172); assay: Functional mobilization of intracellular calcium (FLIPR), M2-CHO cells; details: for Emax: 100% efficacy = maximum response obtained with the Carbachol control; for M2 Activity: M2-CHO cells, calcium mobilization (FLIPR)
T2 construct: expressed in transfected cells; host or cells: CHO (M2-CHO)
T2 sequence (P08172 1-466): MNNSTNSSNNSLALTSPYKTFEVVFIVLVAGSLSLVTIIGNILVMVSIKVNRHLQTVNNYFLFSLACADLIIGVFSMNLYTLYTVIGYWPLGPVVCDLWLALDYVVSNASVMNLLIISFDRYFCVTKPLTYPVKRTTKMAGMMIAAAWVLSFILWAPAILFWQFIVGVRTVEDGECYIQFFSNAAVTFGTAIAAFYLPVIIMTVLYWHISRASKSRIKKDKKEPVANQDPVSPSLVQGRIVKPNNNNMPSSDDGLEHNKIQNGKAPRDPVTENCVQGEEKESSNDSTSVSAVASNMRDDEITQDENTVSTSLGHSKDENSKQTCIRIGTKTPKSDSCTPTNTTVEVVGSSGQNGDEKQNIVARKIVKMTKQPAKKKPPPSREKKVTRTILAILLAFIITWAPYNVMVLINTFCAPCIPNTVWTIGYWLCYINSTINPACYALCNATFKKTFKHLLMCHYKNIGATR
Outline: as §1

M3 muscarinic receptor = target: T3, M3 muscarinic receptor (Homo sapiens, UniProt P20309); assay: Functional mobilization of intracellular calcium (FLIPR), M3-CHO cells; details: for Emax: 100% efficacy = maximum response obtained with the Carbachol control; for M3 Activity: M3-CHO cells, calcium mobilization (FLIPR)
T3 construct: expressed in transfected cells; host or cells: CHO (M3-CHO)
T3 sequence (P20309 whole entry): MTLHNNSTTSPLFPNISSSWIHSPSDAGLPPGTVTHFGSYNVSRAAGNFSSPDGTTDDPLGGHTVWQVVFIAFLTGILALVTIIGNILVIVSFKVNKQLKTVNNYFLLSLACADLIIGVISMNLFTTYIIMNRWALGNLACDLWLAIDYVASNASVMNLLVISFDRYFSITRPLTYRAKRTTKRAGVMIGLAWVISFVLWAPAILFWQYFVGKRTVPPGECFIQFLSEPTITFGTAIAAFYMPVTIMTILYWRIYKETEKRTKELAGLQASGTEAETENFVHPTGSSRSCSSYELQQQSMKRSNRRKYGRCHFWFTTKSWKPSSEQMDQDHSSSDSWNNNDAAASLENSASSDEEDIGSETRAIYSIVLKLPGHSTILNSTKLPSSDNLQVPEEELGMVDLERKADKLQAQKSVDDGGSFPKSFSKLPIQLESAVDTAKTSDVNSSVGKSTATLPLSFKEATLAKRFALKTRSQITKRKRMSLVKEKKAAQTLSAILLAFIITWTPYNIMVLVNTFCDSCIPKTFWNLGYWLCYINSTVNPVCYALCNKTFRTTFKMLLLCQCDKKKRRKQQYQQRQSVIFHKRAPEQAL
Procedure: Functional Mobilization of Intracellular Calcium to Determine Muscarinic Receptor Activity:
CHO cells expressing muscarinic receptors (M1 to M5) are grown as monolayers in tissue culture flasks at 37° C. in a humidified atmosphere containing 5% CO2 and passaged every 3-5 days. The growth media is Dulbecco's modified eagles medium (DMEM, Gibco Cat #12430-054), containing 25 mM Hepes and supplemented with Fetal Bovine Serum (Hyclone, cat #SH30071.03), 0.1 mM of MEM non-essential amino acids (GIBCO, Cat #11140-050), 1 mM MEM Sodium Pyruvate (GIBCO Cat #11360-070) and 100 units/ml of Penicillin G and 100 μg/ml of Streptomycin (GIBCO Cat #15140-122). The recombinant muscarinic receptor cell lines are grown under antibiotic pressure with media containing 25 μg/ml zeocin and 500 μg/ml G418 (M1-CHO), 4 μg/ml puromycin, 50 μg/ml zeocin and 2.5 μg/ml blasticidin (M2 and M4-CHO) or 50 μg/ml zeocin and 4 μg/ml puromycin (M3 and M5-CHO).
Cells are harvested at 80-90% confluence using Versene (GIBCO Cat #15040-066), collected by centrifugation and seeded 18-24 hrs prior to running the calcium assay at a density of 5,000-10,000 cells/well in […], clear-bottomed 384-well plates (BD Biocoat, poly-D-lysine, Cat #356663). The day of the experiment, the cells are washed with a plate washer (Bioteck Instruments, ELX 405) using bath 1 buffer (140-mM NaCl, 4.5-mM KCl, 2-mM CaCl2, 1-mM MgCl2, 10-mM Hepes-Na, 10-mM Glucose, pH 7.4, with NaOH) containing 1 mM Probenecid. Next, the calcium dye Fluo-3 (25 μl/well of Fluo-3 AM at 4 μM, Molecular Probes F-1241, in Bath 1 buffer containing 1 mM Probenecid) is added to the 25 μl of Bath 1 remaining in each well after the plate wash and the dye is loaded at 37° C. in the tissue culture incubator for 60-90 min. The fluorescent dye is removed using the plate washer with Bath 1 containing 1 mM Probenecid, leaving 25 μl/well of this solution after the wash. Alternatively, cells can be loaded with the calcium indicator from Molecular Devices (Calcium 3 Assay Reagents, Cat #R7181) adding 5 μl of a 5× solution dye in Bath 1 containing 1 mM Probenecid (10 ml per dye flask cat #R7182 to generate a solution 20×) to 20 μl of the same buffer. After loading for 60 min, the experiment can be run without having to remove the dye.
Compounds are prepared at a 2× fold concentration in a 96-well plate (round bottom, Costar Corning cat #3656), by reconstituting the pre-spotted compounds in bath 1 containing 1 mM probenecid. The final concentration DMSO is 0.5%, and the amount of DMSO is normalized across the assay plate. To determine an agonist action of the compounds on muscarinic receptors, the reconstituted compounds are added (25 μl compound/well) to the cell assay plate (containing 25 μl/well) using the multi-channel robotic system of the FLIPR 3 Instrument (Molecular Devices, Sunnyvale, Calif.). To determine a functional inhibitory action of the compounds on muscarinic receptors, the reconstituted compounds are added (25 μl compound/well) to the assay plate and pre-incubated for 15 min prior to adding 25 μl of Carbachol at 3× the EC80 for each muscarinic subtype. Alternatively, the compounds can be co-applied simultaneously with the agonist. In both assay modes, the fluorescence is recorded for 60 sec (excitation wavelength is […] and emission wavelength 540 nm) using the FLIPR 3 instrument.
The potency, efficacy and selectivity of the muscarinic compounds were evaluated by screening the compound activity across the whole family (M1 to M5 cells). Compounds were also screened for activity on other proteins such as other GPCRs and ion channels to determine selectivity on M4 receptors.
Examples of activities and efficacies of the muscarinic compounds of formulae (I, Ia, Ib, and II) on modulating M1, M2, M3 and M4 receptors are shown below in Table 3. […]

M4 muscarinic receptor = target: T4, M4 muscarinic receptor (Homo sapiens, UniProt P08173); assay: Functional mobilization of intracellular calcium (FLIPR), M4-CHO cells; details: for Emax: 100% efficacy = maximum response obtained with the Carbachol control; for M4 Activity: M4-CHO cells, calcium mobilization (FLIPR)
T4 construct: expressed in transfected cells; host or cells: CHO (M4-CHO)
T4 sequence (P08173 1-479): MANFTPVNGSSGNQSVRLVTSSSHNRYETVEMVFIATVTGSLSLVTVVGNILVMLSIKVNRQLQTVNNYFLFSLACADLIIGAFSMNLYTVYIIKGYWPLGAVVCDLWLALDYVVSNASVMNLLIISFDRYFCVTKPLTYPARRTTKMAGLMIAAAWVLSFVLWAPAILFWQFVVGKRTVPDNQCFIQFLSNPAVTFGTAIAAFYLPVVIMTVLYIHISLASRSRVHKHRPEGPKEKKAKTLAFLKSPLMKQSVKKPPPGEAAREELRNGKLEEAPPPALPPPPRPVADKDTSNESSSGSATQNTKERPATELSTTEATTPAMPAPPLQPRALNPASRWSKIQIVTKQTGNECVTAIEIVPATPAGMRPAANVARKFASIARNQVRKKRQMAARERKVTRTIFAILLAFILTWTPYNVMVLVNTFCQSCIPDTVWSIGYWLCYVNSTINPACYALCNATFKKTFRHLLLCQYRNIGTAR
Outline: as §1

Compound | Emax (M1 muscarinic receptor) [%] | M1 Activity (M1 muscarinic receptor) | Emax (M2 muscarinic receptor) [%] | M2 Activity (M2 muscarinic receptor) | Emax (M3 muscarinic receptor) [%] | M3 Activity (M3 muscarinic receptor) | Emax (M4 muscarinic receptor) [%] | M4 Activity (M4 muscarinic receptor)
COc1ccccc1C1CCN(C2CCCC2)CC1 [Compound 15] | < 25 | + (activity was measured to be greater than 5.0 μM) | < 25 | + (activity was measured to be greater than 5.0 μM) | < 25 | + (activity was measured to be greater than 5.0 μM) | 25 to 100 | +++ (activity was measured to be less than 1.0 μM)
O=C(COc1ccccc1C1CCN([C@H]2C[C@H]3CC[C@H]2C3)CC1)c1cccc(Cl)c1 [Compound 16] | < 25 | + (activity was measured to be greater than 5.0 μM) | < 25 | + (activity was measured to be greater than 5.0 μM) | < 25 | + (activity was measured to be greater than 5.0 μM) | 25 to 100 | ++ (activity was measured to be from 1.0 μM to 5.0 μM)
COc1ccc(-c2ccc(C(=O)N3CCCC3)cc2)cc1C1CCN([C@H]2C[C@H]3CC[C@H]2C3)CC1 [Compound 17] | < 25 | + (activity was measured to be greater than 5.0 μM) | < 25 | + (activity was measured to be greater than 5.0 μM) | < 25 | + (activity was measured to be greater than 5.0 μM) | 25 to 100 | ++ (activity was measured to be from 1.0 μM to 5.0 μM)
COc1ccc(F)cc1C1CCN(C[C@H]2C[C@H]3C=C[C@H]2C3)CC1 [Compound 18] | 25 to 100 | +++ (activity was measured to be less than 1.0 μM) | 25 to 100 | +++ (activity was measured to be less than 1.0 μM) | < 25 | + (activity was measured to be greater than 5.0 μM) | 25 to 100 | +++ (activity was measured to be less than 1.0 μM)
CCC(=O)COc1ccccc1C1CCN([C@H]2C[C@H]3CC[C@H]2C3)CC1 [Compound 19] | 25 to 100 | ++ (activity was measured to be from 1.0 μM to 5.0 μM) | < 25 | + (activity was measured to be greater than 5.0 μM) | < 25 | + (activity was measured to be greater than 5.0 μM) | 25 to 100 | +++ (activity was measured to be less than 1.0 μM)
COc1ccc(-c2ccc([S+](C)[O-])cc2)cc1C1CCN(C2CCOCC2)CC1 (centres unmarked) [Compound 22] | < 25 | + (activity was measured to be greater than 5.0 μM) | < 25 | + (activity was measured to be greater than 5.0 μM) | < 25 | + (activity was measured to be greater than 5.0 μM) | < 25 | + (activity was measured to be greater than 5.0 μM)
Cc1ccccc1C1CCN([C@H]2C[C@H]3CC[C@H]2C3)CC1 [Compound 24] | 25 to 100 | ++ (activity was measured to be from 1.0 μM to 5.0 μM) | 25 to 100 | ++ (activity was measured to be from 1.0 μM to 5.0 μM) | < 25 | + (activity was measured to be greater than 5.0 μM) | 25 to 100 | +++ (activity was measured to be less than 1.0 μM)
COc1ccccc1C1(O)CCN(C2CC3CCC2C3)CC1 (centres unmarked) [Compound 25] | < 25 | + (activity was measured to be greater than 5.0 μM) | < 25 | + (activity was measured to be greater than 5.0 μM) | – | + (activity was measured to be greater than 5.0 μM) | < 25 | + (activity was measured to be greater than 5.0 μM)
CC(C)Oc1ccccc1C1CCN([C@H]2C[C@H]3CC[C@H]2C3)CC1 [Compound 26] | 25 to 100 | ++ (activity was measured to be from 1.0 μM to 5.0 μM) | < 25 | + (activity was measured to be greater than 5.0 μM) | < 25 | + (activity was measured to be greater than 5.0 μM) | 25 to 100 | +++ (activity was measured to be less than 1.0 μM)
